The text below walks through data of article PMC8550792, “Evolution of kinase polypharmacology across HSP90 drug discovery” (Cell Chemical Biology, 2021).

What all share (experiment): biochemical
Holding throughout (assay type): biochemical

Experiment [1] concerns the target T1, 382 unique human kinases (Homo sapiens, UniProt P53667).
T1 construct: purchased Reaction Biology (HotSpot contract assay)
The note with it: LIMK1, 10 uM; for remaining activity at 10 µM: read-out: % Enzyme Activity (relative to DMSO controls).

The target in experiment [2] is T2, 382 unique human kinases (Homo sapiens, UniProt O00238).
T2 construct: purchased Reaction Biology (HotSpot contract assay)
The note with it: kinase ALK6/BMPR1B, compound 10 uM; for remaining activity at 10 µM: read-out: % Enzyme Activity (relative to DMSO controls).

Experiment [3] concerns the target T3, 382 unique human kinases (Homo sapiens, UniProt P30530).
T3 construct: purchased Reaction Biology (HotSpot contract assay)
T3 sequence (P30530 26-894): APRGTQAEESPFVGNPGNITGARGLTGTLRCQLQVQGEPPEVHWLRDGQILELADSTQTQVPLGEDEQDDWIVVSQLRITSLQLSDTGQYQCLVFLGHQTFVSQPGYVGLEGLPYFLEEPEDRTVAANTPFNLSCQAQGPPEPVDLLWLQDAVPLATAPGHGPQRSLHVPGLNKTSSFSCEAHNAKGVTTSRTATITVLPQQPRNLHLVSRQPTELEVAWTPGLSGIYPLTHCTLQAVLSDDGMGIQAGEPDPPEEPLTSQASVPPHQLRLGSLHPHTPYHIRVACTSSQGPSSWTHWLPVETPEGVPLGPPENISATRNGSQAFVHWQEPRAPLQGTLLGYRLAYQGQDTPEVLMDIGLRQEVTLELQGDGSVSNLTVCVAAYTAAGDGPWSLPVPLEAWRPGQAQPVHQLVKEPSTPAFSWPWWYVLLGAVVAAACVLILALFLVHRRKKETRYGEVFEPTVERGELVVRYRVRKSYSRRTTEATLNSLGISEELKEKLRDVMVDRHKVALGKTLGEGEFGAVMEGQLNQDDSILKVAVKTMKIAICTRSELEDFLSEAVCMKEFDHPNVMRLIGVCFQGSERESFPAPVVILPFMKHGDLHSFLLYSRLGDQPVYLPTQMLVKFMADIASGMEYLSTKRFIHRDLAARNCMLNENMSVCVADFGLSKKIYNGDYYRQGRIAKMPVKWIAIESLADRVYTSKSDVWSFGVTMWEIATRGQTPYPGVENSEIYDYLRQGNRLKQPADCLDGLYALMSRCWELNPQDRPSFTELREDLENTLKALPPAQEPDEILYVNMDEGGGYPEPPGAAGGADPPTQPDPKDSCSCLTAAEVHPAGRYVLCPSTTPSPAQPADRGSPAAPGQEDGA
The note with it: kinase AXL, compound 10 uM; for remaining activity at 10 µM: read-out: % Enzyme Activity (relative to DMSO controls).

The target in experiment [4] is T4, 382 unique human kinases (Homo sapiens, UniProt P30530, R499C).
T4 construct: purchased Reaction Biology (HotSpot contract assay)
T4 sequence (P30530 26-894 R499C): T3 sequence (P30530 26-894) with R474C
The note with it: AXL (R499C), 10 uM; for remaining activity at 10 µM: read-out: % Enzyme Activity (relative to DMSO controls).

Experiment [5] has as its target T5, 382 unique human kinases (Homo sapiens, UniProt P00533, T790M).
T5 construct: purchased Reaction Biology (HotSpot contract assay)
The note with it: kinase EGFR (T790M), compound 10 uM; for remaining activity at 10 µM: read-out: % Enzyme Activity (relative to DMSO controls).

Experiment [6] deals with T6, 382 unique human kinases (Homo sapiens, UniProt P08581, V1092I).
T6 construct: purchased Reaction Biology (HotSpot contract assay)
The note with it: c-MET (V1092I), 10 uM; for remaining activity at 10 µM: read-out: % Enzyme Activity (relative to DMSO controls).

The target in experiment [7] is T7, 382 unique human kinases (Homo sapiens, UniProt Q6PHR2).
T7 construct: purchased Reaction Biology (HotSpot contract assay)
T7 sequence (Q6PHR2 1-472): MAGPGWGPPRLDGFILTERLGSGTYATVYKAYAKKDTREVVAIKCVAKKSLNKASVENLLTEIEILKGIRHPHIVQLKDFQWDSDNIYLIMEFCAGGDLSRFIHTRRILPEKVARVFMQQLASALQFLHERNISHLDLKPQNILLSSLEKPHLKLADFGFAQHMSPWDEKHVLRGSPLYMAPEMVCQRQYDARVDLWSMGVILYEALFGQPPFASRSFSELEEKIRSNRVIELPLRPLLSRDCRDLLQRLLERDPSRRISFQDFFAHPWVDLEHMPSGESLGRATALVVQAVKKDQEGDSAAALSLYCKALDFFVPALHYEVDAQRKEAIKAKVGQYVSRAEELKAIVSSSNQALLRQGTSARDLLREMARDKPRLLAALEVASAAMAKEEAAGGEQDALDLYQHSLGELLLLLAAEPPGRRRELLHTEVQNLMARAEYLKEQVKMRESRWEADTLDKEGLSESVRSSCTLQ
The note with it: ULK3, 10 uM; for remaining activity at 10 µM: read-out: % Enzyme Activity (relative to DMSO controls).

The target of experiment [8] is T8, 382 unique human kinases (Homo sapiens, UniProt P08631).
T8 construct: purchased Reaction Biology (HotSpot contract assay)
The note with it: HCK, [ATP] 30 µM.

The target of experiment [9] is T9, 382 unique human kinases (Homo sapiens, UniProt P07947).
T9 construct: purchased Reaction Biology (HotSpot contract assay)
The note with it: YES/YES1, [ATP] 50 µM.

[10] abbreviates: compound 1 uM, read-out: % Enzyme Activity (relative to DMSO controls).
Setting [11] is: compound 10 uM, read-out: % Enzyme Activity (relative to DMSO controls).

Numbering of substitutions follows the chain as printed.

T8 sequence (P08631 whole entry): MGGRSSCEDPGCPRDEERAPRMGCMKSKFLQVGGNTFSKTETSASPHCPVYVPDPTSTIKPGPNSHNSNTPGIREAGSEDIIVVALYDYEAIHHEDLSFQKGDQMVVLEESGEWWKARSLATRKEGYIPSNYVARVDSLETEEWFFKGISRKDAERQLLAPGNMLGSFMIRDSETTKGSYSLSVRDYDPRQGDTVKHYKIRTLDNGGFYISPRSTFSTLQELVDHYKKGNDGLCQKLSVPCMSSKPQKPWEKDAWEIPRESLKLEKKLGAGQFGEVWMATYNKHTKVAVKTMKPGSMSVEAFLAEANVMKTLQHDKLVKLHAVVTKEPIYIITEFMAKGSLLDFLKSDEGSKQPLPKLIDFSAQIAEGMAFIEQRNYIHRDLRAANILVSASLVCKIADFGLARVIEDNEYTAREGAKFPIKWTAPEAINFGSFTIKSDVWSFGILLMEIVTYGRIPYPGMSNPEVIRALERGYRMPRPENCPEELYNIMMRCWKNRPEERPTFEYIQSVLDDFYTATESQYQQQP
T9 sequence (P07947 whole entry): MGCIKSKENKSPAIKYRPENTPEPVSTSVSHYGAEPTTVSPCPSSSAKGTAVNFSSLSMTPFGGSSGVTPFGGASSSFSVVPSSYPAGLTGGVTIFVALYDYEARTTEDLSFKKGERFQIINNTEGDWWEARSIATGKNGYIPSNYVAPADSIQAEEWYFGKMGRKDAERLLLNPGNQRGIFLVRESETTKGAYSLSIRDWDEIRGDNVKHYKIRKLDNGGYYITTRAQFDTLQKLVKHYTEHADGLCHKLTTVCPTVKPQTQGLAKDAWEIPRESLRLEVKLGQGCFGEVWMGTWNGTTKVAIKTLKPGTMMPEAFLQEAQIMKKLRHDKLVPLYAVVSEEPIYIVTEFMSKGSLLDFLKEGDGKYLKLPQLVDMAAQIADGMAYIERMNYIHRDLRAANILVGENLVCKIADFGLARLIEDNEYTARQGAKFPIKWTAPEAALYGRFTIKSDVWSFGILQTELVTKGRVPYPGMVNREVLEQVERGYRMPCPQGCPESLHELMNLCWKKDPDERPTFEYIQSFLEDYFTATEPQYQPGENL
T1 sequence (P53667 whole entry): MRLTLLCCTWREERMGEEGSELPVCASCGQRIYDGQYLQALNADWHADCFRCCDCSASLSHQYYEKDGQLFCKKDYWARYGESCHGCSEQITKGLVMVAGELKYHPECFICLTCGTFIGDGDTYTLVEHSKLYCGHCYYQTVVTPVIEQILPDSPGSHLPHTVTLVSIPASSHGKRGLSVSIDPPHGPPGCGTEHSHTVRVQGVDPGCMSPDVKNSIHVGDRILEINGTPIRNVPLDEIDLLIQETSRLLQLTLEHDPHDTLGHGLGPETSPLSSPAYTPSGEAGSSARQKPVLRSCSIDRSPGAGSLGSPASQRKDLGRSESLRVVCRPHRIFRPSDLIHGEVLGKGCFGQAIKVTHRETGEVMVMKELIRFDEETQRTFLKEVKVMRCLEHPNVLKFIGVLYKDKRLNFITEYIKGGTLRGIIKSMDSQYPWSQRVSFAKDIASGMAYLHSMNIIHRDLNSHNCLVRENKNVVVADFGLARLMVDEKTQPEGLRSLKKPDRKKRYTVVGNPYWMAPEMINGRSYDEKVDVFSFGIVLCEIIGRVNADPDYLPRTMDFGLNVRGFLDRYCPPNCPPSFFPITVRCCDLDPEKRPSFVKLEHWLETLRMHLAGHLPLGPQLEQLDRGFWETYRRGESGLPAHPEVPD
T2 sequence (O00238 14-502): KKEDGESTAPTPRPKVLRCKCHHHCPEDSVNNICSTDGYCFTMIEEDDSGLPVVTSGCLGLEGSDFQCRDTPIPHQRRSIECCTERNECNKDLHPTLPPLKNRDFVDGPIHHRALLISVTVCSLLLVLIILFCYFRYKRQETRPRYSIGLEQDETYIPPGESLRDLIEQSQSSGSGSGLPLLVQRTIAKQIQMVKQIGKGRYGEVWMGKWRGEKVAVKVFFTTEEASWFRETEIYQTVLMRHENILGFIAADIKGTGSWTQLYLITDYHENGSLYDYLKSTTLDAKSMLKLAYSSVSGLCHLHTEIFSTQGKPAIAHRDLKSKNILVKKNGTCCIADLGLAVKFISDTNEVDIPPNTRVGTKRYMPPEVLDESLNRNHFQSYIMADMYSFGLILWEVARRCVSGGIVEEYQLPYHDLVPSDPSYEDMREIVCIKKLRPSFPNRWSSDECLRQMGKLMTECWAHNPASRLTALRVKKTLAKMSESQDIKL

In the case of `CC(C)c1cc(-c2n[nH]c(=O)n2-c2ccc3c(ccn3C)c2)c(O)cc1O` [Ganetespib (STA9090)], the remaining activity at 10 µM came to 67.6% at 382 unique human kinases [1]; 94.5% on 382 unique human kinases [2]; 84% on 382 unique human kinases [3]; 66.4% on 382 unique human kinases [4]; 85.7% at 382 unique human kinases [5].
Regarding `CC(C)c1cc(-c2n[nH]c(=O)n2-c2ccc3c(ccn3C)c2)c(O)cc1O` [Ganetespib], the remaining activity at 10 µM was determined as 98.3% at 382 unique human kinases [6], 100% at 382 unique human kinases [7], 14.5% on 382 unique human kinases [8] (setting [11]) and 12.8% on 382 unique human kinases [9] (setting [11]). The remaining activity at 1 µM at 382 unique human kinases [8] (setting [10]) was 77.7%; at 382 unique human kinases [9] (setting [10]), 45.5%.
Consider `CCNC(=O)c1noc(-c2cc(C(C)C)c(O)cc2O)c1-c1ccc(CN2CCOCC2)cc1` [Luminespib (AUY-922)], for which the “% Enzyme Activity (relative to DMSO controls)” value amounted to 101.40% at 382 unique human kinases [1]; 93.58% on 382 unique human kinases [2]; 97.82% on 382 unique human kinases [3]; 96.57% on 382 unique human kinases [4]; 95.04% at 382 unique human kinases [5]. The remaining activity at 10 µM on 382 unique human kinases [1] was determined as 102%; at 382 unique human kinases [2], 94.8%; on 382 unique human kinases [3] it was 98.9%; on 382 unique human kinases [4] it was 98.8%; at 382 unique human kinases [5], 95.4%.
Take `CCNC(=O)c1noc(-c2cc(C(C)C)c(O)cc2O)c1-c1ccc(CN2CCOCC2)cc1` [Luminespib]: the “% Enzyme Activity (relative to DMSO controls)” value at 382 unique human kinases [6] is recorded as 95.91%; on 382 unique human kinases [7], 91.59%; at 382 unique human kinases [8] (compound 10 uM), 95.21%; on 382 unique human kinases [9] (compound 10 uM), 49.59%. Moreover, the remaining activity at 10 µM stood at 97.2% at 382 unique human kinases [6], 94.8% at 382 unique human kinases [7], 97.2% at 382 unique human kinases [8] (setting [11]) and 52.3% at 382 unique human kinases [9] (setting [11]).
